Experimental data reported in patent US11572590B2, “Methods for evaluating tumor cell spheroids using 3D microfluidic cell culture device” (Dana-Farber Cancer Institute, Inc., priority 2017, dated 2023).

Columns and labels:
Format in all cases: cell-based, murine
B16F10 MDOTS = assay: Live/dead (AO/PI) imaging of B16F10 MDOTS in 3D microfluidic culture; conditions: Cmpd1 (1 μM) + αPD-1, 6 days
Description: (§1) Fresh tumor specimens (murine and human patients) were received in media (DMEM) on ice and minced in a 10 cm dish (on ice) using sterile forceps and scalpel. Minced tumor was resuspended in DMEM ([…], […] sodium pyruvate, 1:100 penicillin-streptomycin) (Corning CellGro, Manassas, Va.) +10% FBS (Gemini Bio-Products, West Sacramento, Calif.), 100 U/mL collagenase type IV (Life Technologies, Carlsbad, Calif.), and 15 mM HEPES (Life Technologies, Carlsbad, Calif.), except for CT26 tumors that were prepared in RPMI. Samples were pelleted and resuspended in 10-20 mL media. Red blood cells were removed from visibly bloody samples using RBC Lysis Buffer (Boston Bio-Products, Ashland, Mass.). […]
(§2) Dual labeling was performed by loading microfluidic device with Nexcelom ViaStain™ AO/PI Staining Solution (Nexcelom, CS2-0106). Following incubation with the dyes (20 minutes at room temperature in the dark), images were captured on a Nikon Eclipse 80i fluorescence microscope equipped with Z-stack (Prior) and CoolSNAP CCD camera (Roper Scientific). […] Live and dead cell quantitation was performed by measuring total cell area of each dye. […]

CT26 MDOTS = assay: Live/dead (AO/PI) imaging of CT26 MDOTS in 3D microfluidic culture; conditions: Cmpd1 (1 μM) + αPD-1, 6 days
Description: as §1, §2

[1] = test system: CT26 spheroids (lacking immune cells); assay: Bead-based cytokine profiling of CT26 spheroids lacking immune cells; conditions: Day 1, 3, and 6
Description: as §1
Two multiplex assays were performed utilizing a bead-based immunoassay approach, the Bio-Plex Pro™ Human Cytokine 40-plex Assay (Cat #171AK99MR2) and Bio-Plex Pro™ Mouse Cytokine Panel 1, 23-plex (Cat #M60009RDPD) on a Bio-plex 200 system (Cat #171000201). […] Fold changes relative to the MDOT/PDOT control were calculated and plotted as log 2FC. Lower and upper limits of quantitation (LLOQ/ULOQ) were imputed from standard curves for cytokines above or below detection. […]

SMILES: N#Cc1cc(-c2ncnc(Nc3ccc(N4CCN(C5COC5)CC4)cc3)n2)ccc1OC1CCOCC1 [Compound 1, 5-(4-((4-(4-(oxetan-3-yl)piperazin-1-yl)phenyl)amino)-1,3,5-triazin-2-yl)-2-((tetrahydro-2H-pyran-4-yl)oxy)benzonitrile]
- sensitization of B16F10 MDOTS to PD-1 blockade (live/dead) (B16F10 MDOTS): could not be sensitized
- killing of CT26 MDOTS, ex vivo combination treatment (CT26 MDOTS): enhanced killing
- immune suppressive cytokine elaboration by CT26 cell line spheroids [1]: effectively blocked
